Data published in patent publication US20030091975A1, “Multiple determinants for metabolic phenotypes” (priority 2001, published 2003).

tested on: AAMU-Ab; assay: Competitive antigen ELISA, cross-reactivity of AAMU-Ab; type: binding, rabbit; settings: 0 = absence of inhibition or inhibition no higher than 40% at the highest concentration tested (5×10^−3 M)
Method: (§1) Buffers and water without additives are filtered through millipore filters and kept for 1 week. BSA, antibodies, Tween™ 20 and horse radish peroxidase conjugates are added to these buffers and water just prior to use. Urine samples are usually collected 4 hours after drinking a cup of coffee (instant or brewed with approximately 100 mg of caffeine per cup) and stored at −80° C. The urine samples are diluted 10 times with sodium phosphate buffer (620 mosm, pH 7.50) and are subsequently diluted with water to give concentrations of AAMU and 1X no higher than 3×10^−6 M in the ELISA. All the pipettings are done with an eight-channel pipette, except those of the antibody and sample solutions. Starting with the last well, 100 μL of a carbonate buffer (100 mM, pH 9.6) containing 2.5 μg mL-1 antibodies are added to each well. After 90 min. at room temperature, the wells are washed three times with […] of TPB: isotonic sodium phosphate buffer (310 mosm, pH 7.50) containing 0.05% Tween™ 20.
(§2) After the initial wash, unoccupied sites are blocked by incubation for 90 min. at room temperature with 100 μL TBP containing 3% BSA. The wells are washed four times with 100 μL TPB. […] The microplate is gently shaken with an orbital shaker at room temperature for 3-4 hours. The wells are washed three times with 100 μL TPB containing 1% BSA and three times with water containing 0.05% Tween ™ 20. To the washed plate is added 150 μL of a substrate buffer composed of citric acid (25 mM) and sodium phosphate dibasic buffer (50 mM, pH 5.0) containing 0.06% hydrogen peroxide and 0.04% o-phenylenediamine hydrochloride.
(§3) Buffers and water without additives were filtered through millipore filters and kept for 1 week. BSA, antibodies, Tween ™ 20 and horse radish peroxidase conjugates were added to these buffers and water just prior to use. Urine samples were usually collected 4 hours after drinking a cup of coffee (instant or brewed with approximately 100 mg of caffeine per cup) and stored at 80° C. They were diluted 10 times with sodium phosphate buffer (620 mosm, pH 7.50) and were subsequently diluted with water to give concentrations of AAMU and 1X no higher than 3×10^−6 M in the ELISA. All the pipettings were done with an eight-channel pipette, except those of the antibody and sample solutions. Starting with the last well, 100 μL of a carbonate buffer (100 mM, pH 9.6) containing 2.5 μg mL^−1 antibodies was pipetted. After 90 min. at room temperature, the wells were washed three times with 100 μL of TPB: isotonic sodium phosphate buffer (310 mosm, pH 7.50) containing 0.05% Tween™ 20.
(§4) After the initial wash, unoccupied sites were blocked by incubation for 90 min. at room temperature with 100 μL TBP containing 3% BSA. The wells were washed four times with 100 μL TPB. […] The microplate was gently shaken with an orbital shaker at room temperature for 3-4 hours. The wells were washed three times with 100 μL with TPB containing 1% BSA and three times with water containing 0.05% Tween™ 20. To the washed plate was added 150 μL of a substrate buffer composed of citric acid (25 mM) and sodium phosphate dibasic buffer (50 mM, pH 5.0) containing 0.06% hydrogen peroxide and 0.04% o-phenylenediamine hydrochloride. After 20 min. at room temperature with shaking, the reaction was stopped with 50 μL of 2.5 N HCl.
(§5) The cross reactivities of AAMU-Ab and 1X-Ab were tested using a wide variety of caffeine metabolites and structural analogs (Table 5 below).

| Compound | % Cross-Reaction AAMU-Ab [%] |
| --- | --- |
| Cn1c(=O)[nH]c2[nH]c(=O)[nH]c2c1=O [1-Methyluric acid] | 0 |
| O=c1cc[nH]c(=O)[nH]1 [Uracil] | 0 |
| CC(=O)Nc1c(N)n(C)c(=O)[nH]c1=O [5-Acetamino-6-amino-1-methyluracil] | 100 |
| Cn1c(=O)[nH]c(=O)c2[nH]cnc21 [3-Methyl Xanthine] | 0 |
| Nc1nc2nc[nH]c2c(=O)[nH]1 [Guanine] | 0 |
| Cn1cnc2[nH]c(=O)[nH]c(=O)c21 [7-Methyl Xanthine] | 0 |

same assay, conditions: read-out: concentration required for 50% inhibition in the competitive antigen ELISA; AAMU-Ab

| Compound | IC50 [nM] |
| --- | --- |
| CC(=O)Nc1c(N)n(C)c(=O)[nH]c1=O [5-Acetamino-6-amino-1-methyluracil] | 1500 |

tested on: 1X-Ab; assay: Competitive antigen ELISA, cross-reactivity of 1X-Ab; type: binding, rabbit; settings: 0 = absence of inhibition or inhibition no higher than 40% at the highest concentration tested (5×10^−3 M)
Method: as §1, §2, §3, §4, §5

| Compound | % Cross-Reaction 1X-Ab [%] |
| --- | --- |
| Cn1c(=O)[nH]c2[nH]c(=O)[nH]c2c1=O [1-Methyluric acid] | 11 |
| O=c1cc[nH]c(=O)[nH]1 [Uracil] | 0 |
| CC(=O)Nc1c(N)n(C)c(=O)[nH]c1=O [5-Acetamino-6-amino-1-methyluracil] | 0 |
| Cn1c(=O)[nH]c(=O)c2[nH]cnc21 [3-Methyl Xanthine] | 0 |
| Nc1nc2nc[nH]c2c(=O)[nH]1 [Guanine] | 0 |
| Cn1cnc2[nH]c(=O)[nH]c(=O)c21 [7-Methyl Xanthine] | 0 |

tested on: Caffeine-Ab; assay: Competitive antigen ELISA, antibody specificity of caffeine-Ab; type: binding, rabbit; settings: ideal antibody specificity result hypothesized; 0 = no inhibition or no higher than 40% at 5×10^−3 M
Method: (§6) BSA, antibodies, Tween™ 20 and horse radish peroxidase are added to buffers and water just prior to use. Urine samples are usually collected four hours after drinking a cup of coffee (instant or brewed with approximately 100 mg of caffeine per cup) and stored at −20° C. as 1-mL aliquots in 1.5-mL microtubes. For the ELISA, the urine samples are diluted with isotonic sodium phosphate buffer, pH 7.5 (310 mosM) to give concentrations of caffeine, 1.7-DMX and 1,7-DMU no higher than 3×10^−6 M in the microtiter plate wells. Wells of the ELISA plate are washed with a Nunc-Immuno wash 12 washer. Sixteen milliliters of a solution of 6.6 μg ml^−1 of isolated IgG antibodies is prepared in a 100 mM sodium carbonate buffer, pH 9.6, and 150 μL of this solution is pipetted in each well of a microtiter plate using a eight channel pipet (Brinkmann Transferpette™-8 50-200 μL) and 200 μL Flex tips from Brinkmann). After coating the wells with antibodies at 4° C. for 20 hours, the wells are washed 3 times with the isotonic sodium phosphate buffer containing 0.05% Tween™ 20 (IPBT) and properly drained by inverting the plate and absorbing the liquid on to a piece of paper towel. Thirty milliliters of a solution of a IPBT solution containing 1% BSA is prepared and 150 μL of this solution is pipetted in each well using a eight channel pipet (Brinkmann Transferpette ™-8 50-200 μL) and 200 μL yellow tips (Sarstedt yellow tips for P200 Gilson Pipetman). After 3 hours at room temperature, the wells are washed 3 times with IPBT solution and drained. Samples of 400 μL for determination of caffeine, 1,7-DMX and 1,7-DMU are prepared in 1.5-mL microtubes using Sarstedt yellow tips and a P200 Gilson Pipetman. Then, 200 μL of each sample are pipetted in duplicate in a Falcon 96-well microtest tissue culture plate according to the pattern shown in FIG. 22, using Sarstedt yellow tips and a P200 Gilson Pipetman. Using an eight channel pipet (Brinkmann Transferpette™-8 50-200 μL) and changing the tips of the eight channel pipet (200μL Flex tips from Brinkmann) at each row, 150 μL of samples are transferred in the corresponding wells of a 96-well ELISA microtiter plate coated with antibodies. After the addition of the samples, the microtiter plates are covered and left standing at room temperature for 2 h. While the plate is left standing the substrate buffer without the hydrogen peroxide and o-phenylenediamine hydrochloride is prepared (25 mM citric acid and 50 mM sodium phosphate dibasic buffer, pH 5.0). The microtiter plate is washed 3 times with the IPBT solution and 3 times with a 0.05% Tween™ 20 solution and drained. Then, 50 μL of hydrogen peroxide and 40 mg of o-phenylenediamine are added to the substrate buffer. One hundred fifty microliters (150 μL) of the substrate buffer solution is then added to each well using a eight channel pipet (Brinkmann Transferpette™-8 50-200 μL) and 200 μL Flex tips (Brinkmann). The microtiter plate is covered and shaken for 25-30 min at room temperature and the enzymatic reaction is stopped by adding 50 μL/well of a 2.5 N HCl solution using an eight channel pipet (Brinkmann Transferpette™-8 50-200 μL) and 200L Flex tips (Brinkmann).

| Compound | % Cross-reaction Caffeine-Ab [%] |
| --- | --- |
| Cn1c(=O)[nH]c2[nH]c(=O)[nH]c(=O)c21 [7-Methyluric acid] | 0 |
| Cn1c(=O)[nH]c(=O)c2c1[nH]c(=O)n2C [3,7-Dimethyluric acid] | 0 |
| Cn1c(=O)[nH]c(=O)c2[nH]c(=O)[nH]c21 [3-Methyluric acid] | 0 |
| Cn1c(=O)c2[nH]c(=O)[nH]c2n(C)c1=O [1,3-Dimethyluric acid] | 0 |
| Cn1c(=O)c2c([nH]c(=O)n2C)n(C)c1=O [1,3,7-Trimethyluric acid] | 0 |
| Cn1c(=O)[nH]c2[nH]c(=O)[nH]c2c1=O [1-Methyluric acid] | 0 |
| O=c1cc[nH]c(=O)[nH]1 [Uracil] | 0 |
| CC(=O)Nc1c(N)n(C)c(=O)[nH]c1=O [5-Acetamino-6-amino-1-methyluracil] | 0 |
| Cn1c(=O)[nH]c(=O)c2[nH]cnc21 [3-Methyl Xanthine] | 0 |
| Nc1nc2nc[nH]c2c(=O)[nH]1 [Guanine] | 0 |
| Cn1cnc2[nH]c(=O)[nH]c(=O)c21 [7-Methyl Xanthine] | 0 |

tested on: 1,7-DMX-Ab; assay: Competitive antigen ELISA, antibody specificity of 1,7-DMX-Ab; type: binding, rabbit; settings: ideal antibody specificity result hypothesized; 0 = no inhibition or no higher than 40% at 5×10^−3 M
Method: as §6

| Compound | % Cross-reaction 1,7-DMX-Ab [%] |
| --- | --- |
| Cn1c(=O)[nH]c2[nH]c(=O)[nH]c(=O)c21 [7-Methyluric acid] | 0 |
| Cn1c(=O)[nH]c(=O)c2c1[nH]c(=O)n2C [3,7-Dimethyluric acid] | 0 |
| Cn1c(=O)[nH]c(=O)c2[nH]c(=O)[nH]c21 [3-Methyluric acid] | 0 |
| Cn1c(=O)c2[nH]c(=O)[nH]c2n(C)c1=O [1,3-Dimethyluric acid] | 0 |
| Cn1c(=O)c2c([nH]c(=O)n2C)n(C)c1=O [1,3,7-Trimethyluric acid] | 0 |
| Cn1c(=O)[nH]c2[nH]c(=O)[nH]c2c1=O [1-Methyluric acid] | 0 |
| O=c1cc[nH]c(=O)[nH]1 [Uracil] | 0 |
| CC(=O)Nc1c(N)n(C)c(=O)[nH]c1=O [5-Acetamino-6-amino-1-methyluracil] | 0 |
| Cn1c(=O)[nH]c(=O)c2[nH]cnc21 [3-Methyl Xanthine] | 0 |
| Nc1nc2nc[nH]c2c(=O)[nH]1 [Guanine] | 0 |
| Cn1cnc2[nH]c(=O)[nH]c(=O)c21 [7-Methyl Xanthine] | 0 |

tested on: 1,7-DMU-Ab; assay: Competitive antigen ELISA, antibody specificity of 1,7-DMU-Ab; type: binding, rabbit; settings: ideal antibody specificity result hypothesized; 0 = no inhibition or no higher than 40% at 5×10^−3 M
Method: as §6

| Compound | % Cross-reaction 1,7-DMU-Ab [%] |
| --- | --- |
| Cn1c(=O)[nH]c2[nH]c(=O)[nH]c(=O)c21 [7-Methyluric acid] | 0 |
| Cn1c(=O)[nH]c(=O)c2c1[nH]c(=O)n2C [3,7-Dimethyluric acid] | 0 |
| Cn1c(=O)[nH]c(=O)c2[nH]c(=O)[nH]c21 [3-Methyluric acid] | 0 |
| Cn1c(=O)c2[nH]c(=O)[nH]c2n(C)c1=O [1,3-Dimethyluric acid] | 0 |
| Cn1c(=O)c2c([nH]c(=O)n2C)n(C)c1=O [1,3,7-Trimethyluric acid] | 0 |
| Cn1c(=O)[nH]c2[nH]c(=O)[nH]c2c1=O [1-Methyluric acid] | 0 |
| O=c1cc[nH]c(=O)[nH]1 [Uracil] | 0 |
| CC(=O)Nc1c(N)n(C)c(=O)[nH]c1=O [5-Acetamino-6-amino-1-methyluracil] | 0 |
| Cn1c(=O)[nH]c(=O)c2[nH]cnc21 [3-Methyl Xanthine] | 0 |
| Nc1nc2nc[nH]c2c(=O)[nH]1 [Guanine] | 0 |
| Cn1cnc2[nH]c(=O)[nH]c(=O)c21 [7-Methyl Xanthine] | 0 |
